Where a SMILES comes first, the peptide text is derived from it. The star is where a group is joined. Succinyl(4-O-cholesteryl) = CC(C)CCC[C@@H](C)[C@H]1CC[C@H]2[C@@H]3CC=C4C[C@@H](OC(=O)CCC(=O)*)CC[C@]4(C)[C@H]3CC[C@]12C
Columns and labels:
hPIV3 C243 virus strain = type: cell-based, hPIV; conditions: LLC-MK2 cells, hPIV3 C243, plaque reduction; read-out: EC50 against hPIV3 virus
Method: Rhesus monkey kidney cells (LLC-MK2) were sourced from the ATCC, with a catalog number CCL-7.1. The cells were cultured in a DMEM culture solution in which 10% fetal bovine serum, 1% non-essential amino acids, 1% sodium pyruvate, 1% L-glutamine, 100 U/ml penicillin, and 100 μg/ml streptomycin were added.
An HPIV-3 plaque experiment culture medium consisted of a DMEM culture solution added with 2% fetal bovine serum, 1% non-essential amino acids, 1% sodium pyruvate, 1% L-glutamine, 100 U/ml penicillin, and 100 μg/ml streptomycin.
The hPIV Type 3 (hPIV3 C243) was sourced from the ATCC, with a catalog number VR-93.
This study used the plaque reduction experiment to detect the in-vitro activity of the test sample against the hPIV3 C243 virus strain, and Human Anti-HPIV3 Monoclonal Antibody, clone PIA174 was an experimental system control. The test sample and a system experimental antibody were tested at 8 concentrations in duplicated wells.
The LLC-MK2 cells were digested with trypsin and then diluted to a concentration of 400,000 cells per milliliter by using a cell culture solution containing 2% serum. The diluted cells were added to a 96-well cell test board, with 100 μL per well, corresponding to 40,000 cells per well. The cells were cultured overnight in a 37° C. incubator with 5% CO2.
On the next day, the sample diluted at a fold ratio and an equal volume of virus (approximately 200 PFU per well) were well mixed and incubated at 37° C. in 5% CO2 for 1 hour. Then, the culture solution in the 96-well cell test board was discarded, the sample virus mixed solution (100 μL) was added to the 96-well cell culture plate, and incubated at 37° C. in 5% CO2 for 2 hours. After 2 h, the sample virus mixed solution was discarded, 200 μL of an experiment culture medium containing the test sample with a corresponding concentration was added, and the culture solution contained 0.8% CMC. A final concentration of DMSO in the culture solution was 0.5%. A control antibody was directly added to the experiment culture solution containing 0.8% CMC. A cell control (cells, without compound treatment or viral infection) and a viral control (cell infection virus, without compound treatment) were set. The cells were cultured for 1 day in the 37° C. incubator with 5% CO2.
The cells were fixed with 4% paraformaldehyde, and then permeabilization was performed with 0.5% Triton X-100. After the plate was washed with DPBS, a hPIV specific antibody (1:2000 dilution) was added and incubated at 37° C. for 1.5 h. Then, a secondary antibody (1:500 dilution) was added and incubated at 37° C. for 1 hour. The secondary antibody was discarded, a TrueBlue solution was added, dyeing was performed for approximately 10 minutes; and the plate was washed with running water and then air-dried, and the number of spots in each well was counted by using a microplate imaging counter.
Raw data was used for calculating the antiviral activity of the samples, and a calculation formula was shown as follows.
% inhibition rate=100−(sample value-cell control average value)/(virus control average value-cell control average value)×100
Non-linear fitting analysis was performed on the inhibition rate of the sample by using GraphPad Prism (version 10), so as to calculate an EC50 value for the sample. A fitting formula was log (inhibitor) vs. response-Variable slope (four parameters).

RSV A2 virus strain = test: Cotton rat RSV A2 challenge protection, lung nucleic acid load by RT-qPCR; type: in vivo; conditions: cotton rats; for Nucleic acid load RT-qPCR detection results Log10 mean (copy number/gram of lung tissue): tracheal nebulization 1 mg/kg QD for 5 days, lung collected 2 h after final administration on Day 4; for effect on viral titer in lung tissue (in words): tracheal nebulization once daily for 5 days
Description: Female cotton rats were from Shanghai Yishang Biotechnology Co., Ltd. The RSV A2 virus strain was from the ATCC, with a catalog number VR-1540. RT-qPCR primer+probe primer were supplied by Qingke Biotechnology Co., Ltd, with batch number TSP20241227-025-00187. The RT-qPCR standard was provided by Vazyme, with batch number 20241008.
Female cotton rats (6-8 weeks old) were grouped based on body weight (n=5). All animals were intranasally challenged with RSV on Day 0 at a challenge dosage of […] pfu (50 μL) per animal. Administration began 1 h after Day 0 challenge; the polypeptide sample, positive control, and solvent control were administered via tracheal nebulization once daily for 5 consecutive days. Lung tissue was collected from all animals 2 h after the final administration on Day 4. Left lung tissue (including partial trachea) was rapidly frozen in a virus protection solution with a 10-fold volume and stored below −70° C.; and the viral titer was detected with RT-qPCR.
First, sample homogenization and lung tissue RNA extraction were performed, and the supernatant was taken from the tissue sample that was homogenized using a tissue homogenizer (maintaining a low-temperature environment). The approximately 100 μL of the homogenate supernatant was taken, and total tissue RNA was extracted by using a VeZol reagent-chloroform-water phase-magnetic bead method, and dissolved in RNase-free water. The RT-qPCR reaction system was prepared as follows: a one-step RT-qPCR reaction system was prepared by using an RNA template, a probe, a primer pair, an RT-qPCR buffer, and the RNase-free water; each sample was tested in duplicated wells, with each well containing 20 μL of the one-step RT-qPCR reaction system; a quantitative standard curve well (RSV A2 N gene full-length plasmid), a positive quality control well, and a negative quality control well were arranged at the same time. Then, amplification programs were set according to reverse transcription, pre-denaturation, and cyclic amplification, and amplification data was collected by using a real-time fluorescence quantification PCR instrument, and a mean CT value for duplicated wells was calculated. The CT value from the test results for each sample was substituted into a quantitative standard curve to calculate a copy number. A calculation formula for RSV viral load (copy number/gram of lung tissue) was: sample viral load (copy number/gram of lung tissue)=copy number/relative tissue input (g).
One hour after RSV A2 challenge in cotton rats, compounds 13, 14, 17, 19, 20, 21, 26, 27, 28, and 40 were administered via tracheal nebulization once daily for 5 consecutive days; and 2 h after the final administration, lung tissue was collected from all groups for viral titer detection, and results were shown in Table 4.

Compound | EC50 (hPIV3 C243 virus strain) | Nucleic acid load RT-qPCR detection results Log10 mean (copy number/gram of lung tissue) (RSV A2 virus strain) | effect on viral titer in lung tissue (in words) (RSV A2 virus strain)
CC[C@H](C)[C@H](NC(=O)[C@H](CCCCN)NC(=O)[C@H](CCCCN)NC(=O)[C@H](CC(C)C)NC(=O)[C@H](CO)NC(=O)[C@H](CCC(=O)O)NC(=O)[C@H](CCC(=O)O)NC(=O)[C@@H](NC(=O)[C@H](CCCCN)NC(=O)[C@H](CCCCN)NC(=O)[C@H](CC(N)=O)NC(=O)[C@@H](NC(=O)[C@H](CCC(=O)O)NC(=O)[C@H](CCC(=O)O)NC(=O)[C@@H](NC(=O)[C@H](CCCCN)NC(=O)[C@H](CCCCN)NC(=O)[C@H](CC(=O)O)NC(=O)[C@H](Cc1ccccc1)NC(=O)[C@H](CCC(=O)O)NC(=O)[C@H](CC(=O)O)NC(=O)[C@H](Cc1c[nH]c2ccccc12)NC(C)=O)[C@@H](C)CC)C(C)C)[C@@H](C)CC)C(=O)N[C@@H](CCC(=O)O)C(=O)N[C@@H](CCC(=O)O)C(=O)N[C@@H](CO)C(=O)N[C@@H](CC(=O)O)C(=O)N[C@@H](CCCCN)C(=O)N[C@@H](CCCCN)C(=O)N[C@@H](CC(C)C)C(=O)N[C@@H](CCC(=O)O)C(=O)N[C@@H](C)C(=O)N[C@@H](C)C(=O)N[C@@H](C)C(=O)N[C@@H](CCCCN)C(=O)N[C@@H](CCCCNC(=O)CCC(=O)O[C@H]1CC[C@@]2(C)C(=CC[C@H]3[C@@H]4CC[C@H]([C@H](C)CCCC(C)C)[C@@]4(C)CC[C@@H]32)C1)C(N)=O [Compound 13] (Ac-WDEFDKKIEEVNKKIEESLKKIEESDKKLEAAAKK(Succinyl(4-O-cholesteryl))-NH2) | 35.6 nM | 7.82 Log10 copy number/gram of lung | significantly reduce the viral titer in lung tissue
CC[C@H](C)[C@H](NC(=O)[C@H](CCCCN)NC(=O)[C@H](CCCCN)NC(=O)[C@H](CC(C)C)NC(=O)[C@H](CO)NC(=O)[C@H](CCC(=O)O)NC(=O)[C@H](CCC(=O)O)NC(=O)[C@@H](NC(=O)[C@H](CCCCN)NC(=O)[C@H](CCCCN)NC(=O)[C@H](CC(N)=O)NC(=O)[C@@H](NC(=O)[C@H](CCC(=O)O)NC(=O)[C@H](CCC(=O)O)NC(=O)[C@@H](NC(=O)[C@H](CCCCN)NC(=O)[C@H](CCCCN)NC(=O)[C@H](CC(=O)O)NC(=O)[C@H](Cc1ccccc1)NC(=O)[C@H](CCC(=O)O)NC(=O)[C@H](CC(=O)O)NC(=O)[C@H](CO)NC(C)=O)[C@@H](C)CC)C(C)C)[C@@H](C)CC)C(=O)N[C@@H](CCC(=O)O)C(=O)N[C@@H](CCC(=O)O)C(=O)N[C@@H](CO)C(=O)N[C@@H](CC(=O)O)C(=O)N[C@@H](CCCCN)C(=O)N[C@@H](CCCCN)C(=O)N[C@@H](CC(C)C)C(=O)NCC(=O)N[C@@H](CO)C(=O)NCC(=O)N[C@@H](CO)C(=O)NCC(=O)N[C@@H](CCCCNC(=O)CCC(=O)O[C@H]1CC[C@@]2(C)C(=CC[C@H]3[C@@H]4CC[C@H]([C@H](C)CCCC(C)C)[C@@]4(C)CC[C@@H]32)C1)C(N)=O [Compound 20] (Ac-SDEFDKKIEEVNKKIEESLKKIEESDKKLGSGSGK(Succinyl(4-O-cholesteryl))-NH2) | 59.5 nM | 8.55 Log10 copy number/gram of lung | significantly reduce the viral titer in lung tissue
CC[C@H](C)[C@H](NC(=O)[C@H](CO)NC(=O)[C@H](C)NC(=O)[C@H](CC(=O)O)NC(=O)[C@H](Cc1ccccc1)NC(=O)[C@H](CCC(=O)O)NC(=O)[C@H](CC(=O)O)NC(C)=O)C(=O)N[C@@H](CO)C(=O)N[C@@H](CCC(N)=O)C(=O)N[C@H](C(=O)N[C@@H](CC(N)=O)C(=O)N[C@@H](CCC(=O)O)C(=O)N[C@@H](CCCCN)C(=O)N[C@H](C(=O)N[C@@H](CC(N)=O)C(=O)N[C@@H](CCC(N)=O)C(=O)N[C@@H](CO)C(=O)N[C@@H](CC(C)C)C(=O)N[C@@H](CCC(=O)O)C(=O)N[C@@H](CCC(=O)O)C(=O)N[C@H](C(=O)N[C@@H](CCCNC(=N)N)C(=O)N[C@@H](CCCCN)C(=O)N[C@@H](CO)C(=O)N[C@@H](CC(=O)O)C(=O)N[C@@H](CCC(=O)O)C(=O)N[C@@H](CC(C)C)C(=O)N[C@@H](CC(C)C)C(=O)N[C@@H](Cc1c[nH]cn1)C(=O)N[C@@H](CC(N)=O)C(=O)N[C@@H](CCC(=O)O)C(=O)N[C@@H](C)C(=O)N[C@@H](C)C(=O)N[C@@H](C)C(=O)N[C@@H](CCCCN)C(=O)N[C@@H](CCCCNC(=O)CCC(=O)O[C@H]1CC[C@@]2(C)C(=CC[C@H]3[C@@H]4CC[C@H]([C@H](C)CCCC(C)C)[C@@]4(C)CC[C@@H]32)C1)C(N)=O)[C@@H](C)CC)[C@@H](C)CC)C(C)C [Compound 28] (Ac-DEFDASISQVNEKINQSLEEIRKSDELLHNEAAAKK(Succinyl(4-O-cholesteryl))-NH2) | 54.4 nM | 7.76 Log10 copy number/gram of lung | significantly reduce the viral titer in lung tissue
CC[C@H](C)[C@H](NC(=O)[C@H](CCCCN)NC(=O)[C@H](CCCCN)NC(=O)[C@H](CC(C)C)NC(=O)[C@H](CO)NC(=O)[C@H](CCC(N)=O)NC(=O)[C@H](CC(N)=O)NC(=O)[C@@H](NC(=O)[C@H](CCCCN)NC(=O)[C@H](CCCCN)NC(=O)[C@H](CC(=O)O)NC(=O)[C@H](Cc1ccccc1)NC(=O)[C@H](CCC(=O)O)NC(=O)[C@@H](NC(=O)[C@H](CCCCN)NC(=O)[C@H](CCCCN)NC(=O)[C@H](CC(N)=O)NC(=O)[C@@H](NC(=O)[C@H](CC(C)C)NC(=O)[C@H](CCC(=O)O)NC(=O)[C@H](CC(=O)O)NC(=O)[C@H](CO)NC(C)=O)C(C)C)[C@@H](C)CC)[C@@H](C)CC)C(=O)N[C@@H](CCC(=O)O)C(=O)N[C@@H](CCC(=O)O)C(=O)N[C@@H](CO)C(=O)N[C@@H](CC(=O)O)C(=O)N[C@@H](CCCCN)C(=O)N[C@@H](CCCCN)C(=O)N[C@@H](CCCCN)C(=O)N[C@@H](CC(C)C)C(=O)N[C@@H](CCC(=O)O)C(=O)N[C@@H](C)C(=O)N[C@@H](C)C(=O)N[C@@H](C)C(=O)N[C@@H](CCCCN)C(=O)N[C@@H](CCCCN)C(N)=O [Compound 51] (Ac-SDELVNKKIEFDKKINQSLKKIEESDKKKLEAAAKK-NH2) | 18.8 nM | – | –
Ac-LVKKIDEFDASISQVNEKINQSLEEIRKSDELLHNVGSGSGK(Succinyl(4-O-cholesteryl))-NH2 [Compound 29] | 26.3 nM | – | –
Ac-SLEQVNEKINQSLAFIRKSDEINQSDEEVNKSDELLEAAAKK-NH2 [Compound 50] | 34.8 nM | – | –
Ac-WDEFDASISQVNEKINQSLEEIRKSDELLHNVNALEAAAKK(Succinyl(4-O-cholesteryl))-NH2 [Compound 38] | 26.4 nM | – | –

From patent publication US20260250325A1, “Antiviral Polypeptide Membrane Fusion Inhibitor, and Preparation Method and Application Thereof” (priority 2025, published 2026)
